“And” between values parts separate entries of the source, which are not always exact repeats. Equal entries are not always repeated.
Legend:
Format in all cases: cell-based
[1] = biological target: 320 non-olfactory GPCRs (Homo sapiens, UniProt P30989); conditions: receptor NTSR1; replicate values, Fig_4g
[2] = biological target: 320 non-olfactory GPCRs (Homo sapiens, UniProt P32239)
[3] = biological target: T1, 320 non-olfactory GPCRs (Homo sapiens, UniProt P48039); conditions: receptor MTNR1A; replicate values, Fig_4g
T1 construct: expressed in transfected cells; host or cells: HTLA cells

[4] = biological target: T2, 320 non-olfactory GPCRs (Homo sapiens, UniProt Q15391); conditions: receptor P2RY14; replicate values, Fig_4g
T2 construct: expressed in transfected cells; host or cells: HTLA cells
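Throughout, for Fold of Basal: compound tested at 1 µM final concentration.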
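Throughout, for GPCRome agonism screen response: fold over basal response of each receptor without drug.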

320 non-olfactory GPCRs (Homo sapiens, UniProt P30989), sequence (P30989 whole entry): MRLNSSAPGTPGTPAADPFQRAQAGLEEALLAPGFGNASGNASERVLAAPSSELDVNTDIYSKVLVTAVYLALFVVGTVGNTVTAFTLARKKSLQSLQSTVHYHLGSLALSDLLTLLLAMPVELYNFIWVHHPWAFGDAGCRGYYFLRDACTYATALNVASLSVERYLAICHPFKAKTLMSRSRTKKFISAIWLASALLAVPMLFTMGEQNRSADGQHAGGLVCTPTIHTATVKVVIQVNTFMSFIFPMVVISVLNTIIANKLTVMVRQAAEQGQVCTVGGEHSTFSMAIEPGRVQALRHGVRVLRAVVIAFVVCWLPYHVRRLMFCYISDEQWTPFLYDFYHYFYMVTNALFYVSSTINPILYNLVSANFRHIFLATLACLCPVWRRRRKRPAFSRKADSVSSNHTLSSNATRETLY
T2 sequence (Q15391 whole entry): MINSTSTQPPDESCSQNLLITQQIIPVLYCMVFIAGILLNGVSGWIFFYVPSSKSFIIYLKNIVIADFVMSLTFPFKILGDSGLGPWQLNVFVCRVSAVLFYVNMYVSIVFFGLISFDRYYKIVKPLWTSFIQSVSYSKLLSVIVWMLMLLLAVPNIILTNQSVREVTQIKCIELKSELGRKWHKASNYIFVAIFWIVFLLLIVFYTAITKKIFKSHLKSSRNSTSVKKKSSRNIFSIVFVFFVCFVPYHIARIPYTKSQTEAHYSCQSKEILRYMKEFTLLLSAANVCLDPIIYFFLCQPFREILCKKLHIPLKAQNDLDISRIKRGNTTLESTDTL
320 non-olfactory GPCRs (Homo sapiens, UniProt P32239), sequence (P32239 whole entry): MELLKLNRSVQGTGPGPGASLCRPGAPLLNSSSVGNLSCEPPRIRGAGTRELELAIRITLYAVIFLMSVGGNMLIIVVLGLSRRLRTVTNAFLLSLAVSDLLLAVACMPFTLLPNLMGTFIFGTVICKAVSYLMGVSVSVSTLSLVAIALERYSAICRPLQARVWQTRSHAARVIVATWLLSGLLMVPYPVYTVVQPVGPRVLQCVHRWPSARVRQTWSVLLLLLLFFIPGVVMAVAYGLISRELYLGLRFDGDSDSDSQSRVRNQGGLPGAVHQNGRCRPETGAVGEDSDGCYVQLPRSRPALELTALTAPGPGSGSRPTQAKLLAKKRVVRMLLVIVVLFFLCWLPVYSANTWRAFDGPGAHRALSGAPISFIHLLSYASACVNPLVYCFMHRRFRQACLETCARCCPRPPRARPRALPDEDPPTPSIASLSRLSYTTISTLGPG
T1 sequence (P48039 whole entry): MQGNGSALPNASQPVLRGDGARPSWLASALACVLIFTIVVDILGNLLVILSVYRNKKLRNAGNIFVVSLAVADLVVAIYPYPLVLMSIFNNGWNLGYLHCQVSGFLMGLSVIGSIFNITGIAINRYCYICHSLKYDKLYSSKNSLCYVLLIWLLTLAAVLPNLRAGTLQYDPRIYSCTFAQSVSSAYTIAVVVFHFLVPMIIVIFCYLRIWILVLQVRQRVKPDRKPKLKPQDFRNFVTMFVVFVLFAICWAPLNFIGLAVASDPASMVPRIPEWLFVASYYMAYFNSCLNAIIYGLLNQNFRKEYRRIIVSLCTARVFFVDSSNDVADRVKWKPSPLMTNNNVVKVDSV

## CCOc1cccc2cc(C(C)NCC3(O)CCCCC3)oc12 (stereo not shown) [O4LE6]
[1]
  GPCRome agonism screen response: 0.7939 and 0.7425 and 1.49 and 2.039
[2]
  Fold of Basal: 1.067 and 0.8402 and 0.8391 and 1.015
[3]
  GPCRome agonism screen response: 2.743 and 4.229 and 2.242 and 2.817
[4]
  GPCRome agonism screen response: 0.8976 and 0.7161 and 0.7434 and 0.9997

Reference: publication PMC7044277 (Nature Communications, 2020)
